Experimental data published in US20070207123A1, “Amelioration of effects of cigarette smoke” (priority 2002, published 2007).
Marks after values point to notes of the source that are not given here.

How the values were obtained:
[1] = test system: mice exposed to side-stream cigarette smoke (SSCS); experiment: Dynamic lung compliance after side-stream cigarette smoke (SSCS) exposure; assay type: in vivo, mouse (C57B1/6)
Protocol: C57B1/6 (B6, Jackson Labs) mice were utilized. Mice were used at an age of 8-12 weeks, 25-35 grams in weight. Female animals only were utilized. All animals were housed in the animal facility of the Dept. of Animal Resources at The University of Arizona Health Sciences Center. Animals were used in AAALAC-approved protocols.
Aerosolized exposures were performed using a DeVilbiss Ultra-Neb nebulizer (Model 099HD, Somerset, Pa.). Animals were exposed in a nose-only presentation while held in individual subject loading tubes similarly to that previously described (12). The tubes were nose cone-fitted to receiving adapters that originated from the common exposure chamber (volume 0.0027 m3, IN-TOX, Albuquerque, N. Mex.). […] Exposure concentration was determined by a seven-stage cascade impactor (IN-TOX) from changes in plate weights and measured immediately after each exposure. […]
Mice were anesthetized with ketamine hydrochloride (80 mg/kg), xylazine (10 mg/kg) and acepromazine maleate (3 mg/kg). […] Airflow was measured with a pneumotachograph (Fleisch #0000, Instrumentation Associates, New York, N.Y.) that was coupled to a differential pressure transducer (Validyne, Northridge, Calif.). […] These lung function parameters were measured with a modified PEDS-LAB (Medical Associated Services, Hatfield, Pa.) pulmonary function system. […]

[2] = test system: airway epithelium and basement membranes of SSCS-exposed mice; experiment: Electron microscopy of lung airway after SSCS exposure; assay type: in vivo, mouse (C57B1/6)
Protocol: Mice were exposed to side-stream cigarette smoke as previously described (23). […] The cigarette was lit, placed upright in a ring clamp and the smoke was directed into a funnel for distribution through the chamber (at a concentration designed to simulate human exposure in a smokey bar).
The Substance P (SP) agonist, [Sar^9, Met (O2)^11-substance P] was obtained from Sigma Chemicals (St. Louis, Mo.) and used after reconstitution in sterile saline.
(§1) Mice were treated with the SP analog [Sar^9, Met (O2)^11-substance P] for 15 minutes at the indicated doses following the cigarette smoke exposures as previously described (7, 10). Other than the genetically engineered SP experiments, all SP treatments were by the aerosol route using the previously described exposure chambers.
The lungs were prepared for morphometric study by injection of half-strength Kamovsky's Fluid into a major artery at a constant pressure of 20 cm H2O for 1 h at room temperature. The fixed tissue was then tied off at the artery with #4 suture. The Pathology Core Laboratories of the Southwestern Environmental Health Science Center evaluated the fixed tissue for pathological changes. The fixed tissues were sliced, dehydrated and post-fixed in osmium tetroxide, dehydrated and embedded in Epon-Araldite for high-resolution electron microscopy. Thin sections were cut from the embedded tissue with a diamond knife, mounted on 200 um copper mesh grids, and doubly stained with lead citrate and uranyl acetate. The tissue was viewed and photographed using a Phillips CM12 electron microscope (maximum magnification of 19,000×) (21).
Animals were exposed to SSCS for 45 min/day for 7 days from 1R4 standard research cigarettes (cigarette is lit and then placed upright in a ring clamp and the smoke is directed into a funnel for distribution through our exposure chamber) at a concentration designed to simulate a “smokey bar” scenario for human exposure to sidestream cigarette smoke. The sidestream cigarette smoke is considered highly toxic, even compared to the mainstream cigarette smoke that a human smoker inhales, due to the low combustion temperature of the smoldering cigarette. Subsequent to the exposures, some mice were treated with 1 uM-aerosolized SP for 15 minutes. At the end of one week the animals were sacrificed and lungs removed for electron microscopic analysis. […] The structure of the airway is characterized by airway epithelial cells anchored to a basement membrane. Another basement membrane serves as the anchor for the airway endothelial cells. The SSCS electron micrograph is characterized by swelling in both basement membrane areas of the airway structure and loss of cilia on the surface of the airway epithelium. […]

[3] = test system: mononuclear cells of SSCS-exposed mice; experiment: Micronuclei formation in bone marrow and peripheral blood cells after SSCS exposure; assay type: in vivo, mouse (C57B1/6)
Protocol: Determination of micronuclei formation was made as described by Fenech (3). Briefly, animals were exposed to cigarette smoke ±SP treatment. Viable mononuclear cells were isolated from peripheral blood and bone marrow, stimulated with the mitogen PHA for 44 h, and treated with cytochalasin B for 28 h. Cytocentrifuge preparations were made, cells fixed and then analyzed at 1000× for micronuclei formation. At least 1000 cells were analyzed for each preparation.
Exposure to cigarette smoke results in genetic changes that can cause malignant cellular transformation (21, 22). Animals were exposed to SSCS as described above and sacrificed after 7 days. Viable mononuclear cells were isolated from peripheral blood and bone marrow, stimulated with the mitogen PHA for 44 h, and treated with cytochalasin B for 28 h. Cytocentrifuge preparations were made, cells fixed and then analyzed at 1000× for micronuclei formation. At least 1000 cells were analyzed from each preparation. […] Micronuclei formation in combination with damage of lung epithelia can result on pathological conditions such as emphysema and cancer (21).

[4] = test system: B16 tumor cells; experiment: Experimental lung metastasis model, aerosolized SP; assay type: in vivo, mouse (B6); settings: for #Tumors/2 Lungs: mean +/− SD; for % Change in #Tumors/2 Lungs: vs B16 alone
Protocol: as §1
B16 tumor cells (H-2^b) were obtained from the American Type Cell Collection (ATCC) and grown in DMEM media (Sigma, St. Louis, Mo.) supplemented with 10% fetal bovine serum (Hyclone, Colo.), antibiotics, nonessential amino acids and glutamine as. Cells in log growth were used for all experiments. An experimental lung metastasis model was utilized in which B16 tumor cells (0.5×10^6 cells in 100 ul saline) were injected intravenously into syngeneic B6 mice. At 7-10 days post-injection the animals were sacrificed and the visually prominent (black) tumors on the surface of both lungs were enumerated.
The Student's t-test was utilized to analyze the data presented. A p value of 0.05 (or lower) was used as a minimally significant difference.

[5] = test system: pulmonary alveolar macrophages (PAM); experiment: TNF-alpha secretion by pulmonary alveolar macrophages (ELISA); assay type: cell-based, rat (Fischer 344); settings: overnight incubation, baseline 8.3 pg/ml per 1 × 10^6 cells, N 5
Protocol: Rat pulmonary alveolar macrophages (PAM) were isolated from pathogen-free male Fischer 344 rats (Harlan, Indianapolis, Ind.). The rats were anesthetized intramuscularly with ketamine HCL (80 mg/kg; Parke-Davis, Morris Plains, N.J.), xylazine (10 mg/kg; Mobay Corp., Shawnee, Kans.) and acepromazine maleate (3 mg/kg; Fermenta Animal Health Co., Kansas City, Mo.). A tracheostomy was performed, with the insertion of a Teflon #18 gauge catheter (Critikon, Tampa Bay, Fla.) as an endotracheal tube. The rats were killed by exsanguination of the abdominal aorta. The lungs were removed and lavaged with 3 ml aliquots of normal sterile saline warmed to 37 C for a total of 6 washes. The lavaged total cell numbers and PAM differentials were determined from a 0.2 ml sample by hemocytometer counting and cytocentrifuge preparation stained with Diff-Quik (Dade Diagnostics, Aguada, Puerto Rico), respectively. The remaining lavaged fluid was pooled and centrifuged at 400×g for 10 minutes to obtain a cell pellet. […] Cells were then counted using a standard hemocytometer and placed in 12 well plates at a density of 10^4 cells/ml. […]
TNF-alpha secretion by pulmonary alveolar macrophages (PAM) was measured by ELISA (R&D Systems, Minneapolis, Minn.) according to the manufacturer's instructions (25).

[6] = SSCS 45 min/day then 15 min aerosol dose, FIG. 2
[7] = SSCS + SP, 7 days, mean +/− SD, N 6

For [Sar^9, Met (O2)^11-substance P] [SP], the “alterations in lung compliance due to SSCS” value ([1]; SP immediately after the smoke exposures) was “prevented/reversed”, the “Dynamic Lung Compliance” value ([1]; SSCS 45 min/day for 1 week, then 1 uM aerosolized SP for 15 min, mean +/− SEM, N 15) was 2.2 (0.02) ml · cm H2O^−1 · Kg^−1 and the “deterioration of the lung epithelium / basement membrane (electron microscopy)” value ([2]; SSCS 45 min/day 7 days, 1 uM aerosolized SP 15 min) was “attenuated such deterioration of the lung epithelium”. For the same substance, the “airway basement membranes (electron micrograph)” value [2, 6] was “normal appearance of airway basement membranes”, the “airway cilia (electron micrograph)” value [2, 6] was “normal cilia” and the “cell membrane between airway cells (electron micrograph)” value ([2]; SSCS 45 min/day then 15 min aerosol dose, FIG. 3) was “identifiable cell membrane between airway cells”. For the same substance, the “levels of micronuclei formation versus control animals” value ([3]; SP immediately after SSCS exposure, blood and bone marrow cells) was “comparable to control animals”, the “Percent Micronuclei, Blood” value [3, 7] was 0.01 +/− 0.01* Percent and the “Percent Micronuclei, Bone Marrow” value [3, 7] was 0 +/− 0* Percent. For the same substance, the “inhibition of lung tumor formation” value ([4]; Experiments 1 to 3, aerosolized SP at the time of or after tumor induction) was 58-97%, the “#Tumors/2 Lungs” value ([4]; Expt. 1: aerosolized SP at the time of tumor induction, N 4) was 39 +/− 4* and the “% Change in #Tumors/2 Lungs” value ([4]; Expt. 1: aerosolized SP at the time of tumor induction) was −63%. The “#Tumors/2 Lungs” value ([4]; Expt. 2: aerosolized SP at day 7 following tumor induction, N 4) was 1 +/− 0.3*, the “% Change in #Tumors/2 Lungs” value ([4]; Expt. 2: aerosolized SP at day 7 following tumor induction) was −97% and the “#Tumors/2 Lungs” value ([4]; Expt. 3: aerosolized SP at day 7 following tumor induction, N 8) was 102 +/− 32*. For the same substance, the “% Change in #Tumors/2 Lungs” value ([4]; Expt. 3: aerosolized SP at day 7 following tumor induction) was −58%, the “Fold-Increase TNFa” value ([5]; 8 nM SP) was 3.2X and the “Fold-Increase TNFa” value ([5]; 1 uM SP) was 5.4X.
